According to DBAASP:
Converted amounts (≈) assume the structure as drawn. “And” between values parts separate entries of the source, which are not always exact repeats. Equal values may be shown once.

Columns and labels:
Assay in all cases: ≥ marks a high value that may be exact or a test limit, other limits are often not marked, values filed in µg/mL are converted to µM
[1] = system: Aeromonas salmonicida NCIMB 1102
[2] = system: Bacillus subtilis IAM 1026
[3] = system: Escherichia coli JCM 1649
[4] = system: Photobacterium damselae subsp. piscicida Sp 9587
Salmonella typhimurium = system: Salmonella typhimurium
[5] = system: Shewanella putrefaciens IAM 1509
[6] = system: Staphylococcus aureus IAM 1011
[7] = system: Vibrio anguillarum NCIMB 829
[8] = system: Vibrio parahaemolyticus Vp+1
[9] = system: Bacillus licheniformis X39
[10] = system: Candida albicans ATCC 2002
[11] = system: Enterococcus faecalis 981
[12] = system: Enterococcus faecium 091299
[13] = system: Escherichia coli ATCC 25922
[14] = system: Psychrobacter faecalis X29
[15] = system: Rhodococcus rhodochrous X15
[16] = system: Staphylococcus aureus ATCC 25923
[17] = system: Staphylococcus carnosus KHS
Bacillus subtilis 168 = system: Bacillus subtilis 168
[18] = system: Candida albicans F7-39/IDE99
Escherichia coli B = system: Escherichia coli B
[19] = system: Listeria monocytogenes KCTC 3710
[20] = system: Pseudomonas aeruginosa 3320
[21] = system: Pseudomonas aeruginosa ATCC 15692
[22] = system: Pseudomonas aeruginosa ATCC 27853
[23] = system: Staphylococcus aureus 547582
[24] = system: Staphylococcus aureus ATCC 29213
Staphylococcus aureus = system: Staphylococcus aureus
[25] = system: Acinetobacter baumannii ATCC 17978
[26] = system: Acinetobacter baumannii AYE
[27] = system: Candida albicans ATCC 90028
[28] = system: Escherichia coli ATCC 25726
Escherichia coli LEC001 = system: Escherichia coli LEC001
[29] = system: Escherichia coli NCTC 12923
Klebsiella pneumoniae M6 = system: Klebsiella pneumoniae M6
[30] = system: Klebsiella pneumoniae NCTC 13368
[31] = system: Pseudomonas aeruginosa NCTC 13437
[32] = system: Pseudomonas aeruginosa PAO1
[33] = system: Staphylococcus aureus ATCC 9144
[34] = system: Staphylococcus aureus NCTC 13616
[35] = system: Staphylococcus aureus USA 300
Bacillus cereus = system: Bacillus cereus
[36] = system: Batrachochytrium dendrobatidis
Enterococcus faecalis = system: Enterococcus faecalis
Escherichia coli = system: Escherichia coli
[37] = system: Leuconostoc mesenteroides
Mannheimia haemolytica = system: Mannheimia haemolytica
Micrococcus luteus = system: Micrococcus luteus
Streptococcus uberis = system: Streptococcus uberis

## CC[C@H](C)[C@H](NC(=O)CNC(=O)CNC(=O)[C@@H](NC(=O)[C@@H](N)Cc1ccccc1)[C@@H](C)CC)C(=O)N[C@H](C(=O)N[C@@H](CO)C(=O)N[C@@H](Cc1ccccc1)C(=O)N[C@@H](Cc1ccccc1)C(=O)N[C@@H](CCCCN)C(=O)N[C@@H](CCCN=C(N)N)C(=O)N[C@@H](CC(C)C)C(=O)N[C@@H](Cc1ccccc1)C(=O)O)[C@@H](C)CC [FIGGIISFFKRLF]
[1]
  MIC: ≥ 32.4 µM
[2]
  MIC: 2.03 µM (≈ 3.13 µg/mL)
[3]
  MIC: ≥ 32.4 µM
[4]
  MIC: 4.05 µM (≈ 6.25 µg/mL)
Salmonella typhimurium
  MIC: ≥ 32.4 µM
[5]
  MIC: 4.05 µM (≈ 6.25 µg/mL)
[6]
  MIC: 2.03 µM (≈ 3.13 µg/mL)
[7]
  MIC: 8.09 µM (≈ 12.5 µg/mL)
[8]
  MIC: 16.2 µM (≈ 25 µg/mL)

## CC[C@H](C)[C@H](NC(=O)[C@H](CC(C)C)NC(=O)[C@@H]1CCCN1C(=O)[C@H](CC(C)C)NC(=O)[C@@H](N)Cc1ccccc1)C(=O)N[C@@H](C)C(=O)N[C@@H](CO)C(=O)N[C@@H](CC(C)C)C(=O)N[C@@H](C)C(=O)N[C@@H](C)C(=O)N[C@@H](CC(N)=O)C(=O)N[C@@H](Cc1ccccc1)C(=O)N[C@H](C(=O)N1CCC[C@H]1C(=O)N[C@@H](CCCCN)C(=O)N[C@H](C(=O)N[C@@H](Cc1ccccc1)C(=O)N[C@H]1CSSC[C@@H](C(=O)O)NC(=O)[C@H](CCCCN)NC(=O)[C@H](CCCCN)NC(=O)[C@H]([C@@H](C)O)NC(=O)[C@H]([C@@H](C)CC)NC(=O)[C@H](CCCCN)NC1=O)[C@@H](C)CC)C(C)C [FLPLIASLAANFVPKIFCKITKKC]
[9]
  MIC: 2.4 µM (≈ 6.39 µg/mL)
[10]
  MIC: 2.4 µM (≈ 6.39 µg/mL)
[11]
  MIC: 19 µM (≈ 50.6 µg/mL)
[12]
  MIC: 19 µM (≈ 50.6 µg/mL)
[13]
  MIC: 150 µM (≈ 400 µg/mL)
[14]
  MIC: 4.8 µM (≈ 12.8 µg/mL)
[15]
  MIC: 1.2 µM (≈ 3.2 µg/mL)
[16]
  MIC: 1.2 µM (≈ 3.2 µg/mL)
[17]
  MIC: 4.8 µM (≈ 12.8 µg/mL)

## CSCC[C@H](NC(=O)CNC(=O)[C@H](Cc1ccccc1)NC(=O)CN)C(=O)N[C@@H](C)C(=O)N[C@@H](CC(C)C)C(=O)N[C@@H](CCCCN)C(=O)N[C@@H](CC(C)C)C(=O)N[C@@H](CC(C)C)C(=O)N[C@@H](CCCCN)C(=O)N[C@@H](CCCCN)C(=O)N[C@H](C(=O)N[C@@H](CC(C)C)C(N)=O)C(C)C [GFGMALKLLKKVL]
Bacillus subtilis 168
  MIC: 1.3 µM (≈ 1.84 µg/mL)
[18]
  MIC: 6.3 µM (≈ 8.93 µg/mL)
[13]
  MIC: 6.25 µM (≈ 8.86 µg/mL)
Escherichia coli B
  MIC: 3 µM (≈ 4.25 µg/mL)
[19]
  MIC: 25 µM (≈ 35.4 µg/mL)
[20]
  MIC: 8 µM (≈ 11.3 µg/mL)
[21]
  MIC: 6.25 µM (≈ 8.86 µg/mL)
[22]
  MIC: 6.25 µM (≈ 8.86 µg/mL)
[23]
  MIC: 8 µM (≈ 11.3 µg/mL)
[16]
  MIC: 3.13 µM (≈ 4.43 µg/mL)
[24]
  MIC: 3.13 µM (≈ 4.43 µg/mL)
Staphylococcus aureus
  MIC: 3.7 µM and 4.43 µM

## CSCC[C@H](NC(=O)[C@H](CCSC)NC(=O)[C@H](CCCCN)NC(=O)CNC(=O)[C@@H](NC(=O)[C@@H](NC(=O)[C@H](CCCCN)NC(=O)[C@H](CC(C)C)NC(=O)CNC(=O)[C@H](Cc1ccccc1)NC(=O)[C@H](CCCCN)NC(=O)[C@H](Cc1ccccc1)NC(=O)[C@H](C)NC(=O)[C@H](CCCCN)NC(=O)CNC(=O)[C@H](CC(C)C)NC(=O)[C@H](CC(C)C)NC(=O)[C@H](CO)NC(=O)CNC(=O)[C@H](CC(C)C)NC(=O)CN)[C@@H](C)O)C(C)C)C(=O)NCC(=O)NCC(=O)N[C@@H](C)C(=O)N1CCC[C@H]1C(=O)N[C@@H](CCCN=C(N)N)C(=O)N[C@@H](CCC(=O)O)C(=O)N[C@@H](CCC(N)=O)C(=O)O [GLGSLLGKAFKFGLKTVGKMMGGAPREQ]
[25]
  MIC: 1.39 µM (≈ 4 µg/mL)
[26]
  MIC: 1.39 µM (≈ 4 µg/mL)
[27]
  MIC: 25 µM (≈ 72 µg/mL)
[28]
  MIC: 3 µM (≈ 8.64 µg/mL)
Escherichia coli LEC001
  MIC: 2.78 µM (≈ 8 µg/mL)
[29]
  MIC: 2.78 µM (≈ 8 µg/mL)
Klebsiella pneumoniae M6
  MIC: 5.56 µM (≈ 16 µg/mL)
[30]
  MIC: 11.1 µM (≈ 32 µg/mL)
[31]
  MIC: ≥ 44.5 µM
[32]
  MIC: > 44.5 µM
[16]
  MIC: 6 µM (≈ 17.3 µg/mL)
[33]
  MIC: 1.39 µM (≈ 4 µg/mL)
[34]
  MIC: 1.39 µM (≈ 4 µg/mL)
[35]
  MIC: 2.78 µM (≈ 8 µg/mL)

## CSCC[C@H](N=C(O)[C@H](CC(C)C)N=C(O)CN)C(O)=N[C@@H](CO)C(O)=N[C@H](C(O)=N[C@@H](CC(C)C)C(O)=NCC(O)=N[C@@H](Cc1cnc[nH]1)C(O)=N[C@@H](C)C(O)=N[C@H](C(O)=NCC(O)=N[C@@H](CC(=N)O)C(O)=N[C@H](C(O)=N[C@@H](CC(C)C)C(O)=NCC(O)=NCC(O)=N[C@@H](CC(C)C)C(O)=N[C@@H](Cc1ccccc1)C(O)=N[C@@H](CCCCN)C(=O)N1CCC[C@H]1C(O)=N[C@@H](CCCCN)C(=O)O)C(C)C)C(C)C)C(C)C [GLMSVLGHAVGNVLGGLFKPKS]
Bacillus cereus
  MIC: 5.73 µM (≈ 12 µg/mL)
[36]
  MIC: ≥ 100 µM
Enterococcus faecalis
  MIC: ≥ 68.8 µM
Escherichia coli
  MIC: 22.9 µM (≈ 48 µg/mL)
[37]
  MIC: 11.5 µM (≈ 24 µg/mL)
Mannheimia haemolytica
  MIC: 0.367 µM (≈ 0.768 µg/mL)
Micrococcus luteus
  MIC: 0.688 µM (≈ 1.44 µg/mL)
Staphylococcus aureus
  MIC: 45.8 µM (≈ 96 µg/mL)
Streptococcus uberis
  MIC: 22.9 µM (≈ 48 µg/mL)
